Reference: patent publication US20250215030A1, “STAT MODULATORS AND USES THEREOF” (Recludix Pharma, Inc., priority 2022, published 2025)

Columns and labels:
[1] = target: T1, Recombinant STAT6 protein (STAT6(W123-T658)) (Homo sapiens, UniProt P42226); test: STAT6 Fluorescence Polarization (FP) Assay; assay type: binding; settings: STAT6(W123-T658) 250 nM, probe 5-FAM-ApYKPFQDLI-NH2 2 nM, 45-minute incubation
T1 construct: STAT6(W123-T658)
T1 sequence (P42226 123-658): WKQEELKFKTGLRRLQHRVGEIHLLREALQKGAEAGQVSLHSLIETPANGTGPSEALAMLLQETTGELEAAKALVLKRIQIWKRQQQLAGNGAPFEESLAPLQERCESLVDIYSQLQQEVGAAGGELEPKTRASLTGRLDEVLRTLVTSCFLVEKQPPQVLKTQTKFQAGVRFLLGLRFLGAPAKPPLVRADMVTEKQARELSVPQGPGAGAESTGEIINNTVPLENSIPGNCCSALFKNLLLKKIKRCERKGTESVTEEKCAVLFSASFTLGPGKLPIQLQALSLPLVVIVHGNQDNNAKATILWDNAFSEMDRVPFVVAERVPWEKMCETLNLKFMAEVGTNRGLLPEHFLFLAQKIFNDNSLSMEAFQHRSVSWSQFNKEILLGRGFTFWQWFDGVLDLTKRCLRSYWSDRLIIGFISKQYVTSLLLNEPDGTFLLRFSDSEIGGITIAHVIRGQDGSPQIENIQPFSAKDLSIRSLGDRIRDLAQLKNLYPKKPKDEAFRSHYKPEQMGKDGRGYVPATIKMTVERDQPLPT
Procedure, shortened: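 STAT6 (W123-T658) at 250 nM mixed with 2 nM 5-FAM-ApYKPFQDLI-NH2 probe in HEPES pH 7.4 buffer with DTT and Tween 20, 1% DMSO final. Polarization read after 45 min at room temperature; IC50 by nonlinear regression of mP versus log concentration, reported in bins A–D.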

[2] = target: T2, Recombinant STAT3 protein (STAT3(G127-I722)) (Homo sapiens, UniProt P40763); test: STAT3 Fluorescence Polarization (FP) Assay; assay type: binding; settings: STAT3(G127-I722) 25 nM, probe 5-FAM-GpYLPQTV-NH2 2 nM, 45-minute incubation
T2 construct: STAT3(G127-I722)
Procedure, shortened: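 STAT3(G127-I722) at 25 nM and 5-FAM-GpYLPQTV-NH2 probe at 2 nM in HEPES pH 7.4 buffer with NaCl, EDTA, Tween 20, DTT; 1% DMSO. FP read after 45 min at room temperature; IC50 by nonlinear regression of mP vs log concentration, binned A ≤100 nM to D >10 μM.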

T2 sequence (P40763 127-722, species assumed): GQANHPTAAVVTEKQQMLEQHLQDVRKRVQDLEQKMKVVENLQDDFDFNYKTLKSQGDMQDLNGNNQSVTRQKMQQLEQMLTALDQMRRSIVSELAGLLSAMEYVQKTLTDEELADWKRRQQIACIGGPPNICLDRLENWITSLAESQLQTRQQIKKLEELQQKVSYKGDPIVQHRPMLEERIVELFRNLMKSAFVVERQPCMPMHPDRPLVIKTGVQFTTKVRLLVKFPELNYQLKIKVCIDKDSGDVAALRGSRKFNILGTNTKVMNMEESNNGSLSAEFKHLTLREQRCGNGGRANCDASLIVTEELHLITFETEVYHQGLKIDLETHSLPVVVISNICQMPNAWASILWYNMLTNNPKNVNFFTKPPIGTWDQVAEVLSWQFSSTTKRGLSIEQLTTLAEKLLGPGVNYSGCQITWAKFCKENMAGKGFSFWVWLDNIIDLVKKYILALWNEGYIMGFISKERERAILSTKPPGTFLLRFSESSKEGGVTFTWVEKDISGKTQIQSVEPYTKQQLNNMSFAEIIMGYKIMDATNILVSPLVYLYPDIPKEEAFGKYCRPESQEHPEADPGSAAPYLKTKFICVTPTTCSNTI

IC50 [1] [nM]	IC50 [2] [nM]	Compound
3000 to 30000	1000 to 10000	O=C(N[C@H]1C[C@@H]2C[C@@H]2C[C@H]2CC[C@@H](C(=O)N3CCC34CCCCC4)N2C1=O)c1cc2cc(C(F)P(=O)(O)O)ccc2s1 (stereo partly drawn) [Example 388, (fluoro(2-(((3S,6S,7aS,8aR,9aR)-5-oxo-3-(1-azaspiro[3.5]nonane-1-carbonyl)decahydro-1H-cyclopropa[d]pyrrolo[1,2-a]azocin-6-yl)carbamoyl)benzo[b]thiophen-5-yl)methyl)phosphonic acid]
3000 to 30000	1000 to 10000	O=C(N[C@H]1C[C@@H]2C[C@@H]2C[C@H]2CC[C@@H](C(=O)N3CCC34CCCC4)N2C1=O)c1cc2cc(C(F)P(=O)(O)O)ccc2s1 (stereo partly drawn) [Example 389, (fluoro(2-(((3S,6S,7aS,8aR,9aR)-5-oxo-3-(1-azaspiro[3.4]octane-1-carbonyl)decahydro-1H-cyclopropa[d]pyrrolo[1,2-a]azocin-6-yl)carbamoyl)benzo[b]thiophen-5-yl)methyl)phosphonic acid]
3000 to 30000	100 to 1000	O=C(N[C@H]1C[C@@H]2C[C@@H]2C[C@H]2CC[C@@H](C(=O)N3CC(c4ccccc4)C3)N2C1=O)c1cc2cc(C(F)P(=O)(O)O)ccc2s1 (stereo partly drawn) [Example 390, (fluoro(2-(((3S,6S,7aS,8aR,9aR)-5-oxo-3-(3-phenylazetidine-1-carbonyl)decahydro-1H-cyclopropa[d]pyrrolo[1,2-a]azocin-6-yl)carbamoyl)benzo[b]thiophen-5-yl)methyl)phosphonic acid]
> 30000	< 100	CN(C)c1ccncc1C1CN(C(=O)[C@@H]2CC[C@@H]3C[C@@H]4C[C@@H]4C[C@H](NC(=O)c4cc5cc(CP(=O)(O)O)ccc5s4)C(=O)N32)C1 [Example 393, ((2-(((3S,6S,7aR,8aS,9aR)-3-(3-(4-(dimethylamino)pyridin-3-yl)azetidine-1-carbonyl)-5-oxodecahydro-1H-cyclopropa[d]pyrrolo[1,2-a]azocin-6-yl)carbamoyl)benzo[b]thiophen-5-yl)methyl)phosphonic acid]
3000 to 30000	100 to 1000	O=C(N[C@H]1C[C@@H]2C[C@@H]2C[C@H]2CC[C@@H](C(=O)N3CC(c4nocc4Br)C3)N2C1=O)c1cc2cc(C(F)P(=O)(O)O)ccc2s1 (stereo partly drawn) [Example 400, ((2-(((3S,6S,7aS,8aR,9aR)-3-(3-(4-bromoisoxazol-3-yl)azetidine-1-carbonyl)-5-oxodecahydro-1H-cyclopropa[d]pyrrolo[1,2-a]azocin-6-yl)carbamoyl)benzo[b]thiophen-5-yl)fluoromethyl)phosphonic acid]
300 to 3000	< 100	CN(C)c1ccncc1C1CN(C(=O)[C@@H]2CC[C@@H]3C[C@H]4C[C@H]4C[C@H](NC(=O)c4cc5cc(C(F)(F)P(=O)(O)O)ccc5s4)C(=O)N32)C1 [Example 419, ((2-(((3S,6S,7aS,8aR,9aR)-3-(3-(4-(dimethylamino)pyridin-3-yl)azetidine-1-carbonyl)-5-oxodecahydro-1H-cyclopropa[d]pyrrolo[1,2-a]azocin-6-yl)carbamoyl)benzo[b]thiophen-5-yl)difluoromethyl)phosphonic acid]
3000 to 30000	< 100	CCOc1ccncc1C1CN(C(=O)[C@@H]2CC[C@@H]3C[C@H]4C[C@H]4C[C@H](NC(=O)c4cc5cc([C@@H](F)P(=O)(O)O)ccc5s4)C(=O)N32)C1 [Example 420, ((S)-(2-(((3S,6S,7aS,8aR,9aR)-3-(3-(4-ethoxypyridin-3-yl)azetidine-1-carbonyl)-5-oxodecahydro-1H-cyclopropa[d]pyrrolo[1,2-a]azocin-6-yl)carbamoyl)benzo[b]thiophen-5-yl)fluoromethyl)phosphonic acid]
3000 to 30000	< 100	O=C(N[C@H]1C[C@@H]2C[C@@H]2C[C@H]2CC[C@@H](C(=O)N3CC(c4cnccc4N4CCC4)C3)N2C1=O)c1cc2cc([C@@H](F)P(=O)(O)O)ccc2s1 [Example 421, ((S)-(2-(((3S,6S,7aS,8aR,9aR)-3-(3-(4-(azetidin-1-yl)pyridin-3-yl)azetidine-1-carbonyl)-5-oxodecahydro-1H-cyclopropa[d]pyrrolo[1,2-a]azocin-6-yl)carbamoyl)benzo[b]thiophen-5-yl)fluoromethyl)phosphonic acid]
3000 to 30000	< 100	CO[C@@H]1CCN(c2ccncc2C2CN(C(=O)[C@@H]3CC[C@@H]4C[C@H]5C[C@H]5C[C@H](NC(=O)c5cc6cc([C@@H](F)P(=O)(O)O)ccc6s5)C(=O)N43)C2)C1 [Example 422, ((S)-fluoro(2-(((3S,6S,7aS,8aR,9aR)-3-(3-(4-((R)-3-methoxypyrrolidin-1-yl)pyridin-3-yl)azetidine-1-carbonyl)-5-oxodecahydro-1H-cyclopropa[d]pyrrolo[1,2-a]azocin-6-yl)carbamoyl)benzo[b]thiophen-5-yl)methyl)phosphonic acid]
> 30000	< 100	COCC1(F)CN(c2ccncc2C2CN(C(=O)[C@@H]3CC[C@@H]4C[C@H]5C[C@H]5C[C@H](NC(=O)c5cc6cc([C@@H](F)P(=O)(O)O)ccc6s5)C(=O)N43)C2)C1 [Example 425, ((S)-fluoro(2-(((3S,6S,7aS,8aR,9aR)-3-(3-(4-(3-fluoro-3-(methoxymethyl)azetidin-1-yl)pyridin-3-yl)azetidine-1-carbonyl)-5-oxodecahydro-1H-cyclopropa[d]pyrrolo[1,2-a]azocin-6-yl)carbamoyl)benzo[b]thiophen-5-yl)methyl)phosphonic acid]
300 to 3000	100 to 1000	Cn1ccc2cncc(C3CN(C(=O)[C@@H]4CC[C@@H]5C[C@H]6C[C@H]6C[C@H](NC(=O)c6cc7cc([C@@H](F)P(=O)(O)O)ccc7s6)C(=O)N54)C3)c21 [Example 427, ((S)-fluoro(2-(((3S,6S,7aS,8aR,9aR)-3-(3-(1-methyl-1H-pyrrolo[3,2-c]pyridin-7-yl)azetidine-1-carbonyl)-5-oxodecahydro-1H-cyclopropa[d]pyrrolo[1,2-a]azocin-6-yl)carbamoyl)benzo[b]thiophen-5-yl)methyl)phosphonic acid]
3000 to 30000	< 100	N#CC1CN(c2ccncc2C2CN(C(=O)[C@@H]3CC[C@@H]4C[C@H]5C[C@H]5C[C@H](NC(=O)c5cc6cc([C@@H](F)P(=O)(O)O)ccc6s5)C(=O)N43)C2)C1 [Example 428, ((S)-(2-(((3S,6S,7aS,8aR,9aR)-3-(3-(4-(3-cyanoazetidin-1-yl)pyridin-3-yl)azetidine-1-carbonyl)-5-oxodecahydro-1H-cyclopropa[d]pyrrolo[1,2-a]azocin-6-yl)carbamoyl)benzo[b]thiophen-5-yl)fluoromethyl)phosphonic acid]

Compound	IC50 [1] [nM]	IC50 [2] [nM]
((R)-fluoro(2-(((3S,6S,7aS,8aR,9aR)-3-(3-(morpholine-4-carbonyl)azetidine-1-carbonyl)-5-oxodecahydro-1H-cyclopropa[d]pyrrolo[1,2-a]azocin-6-yl)carbamoyl)benzo[b]thiophen-5-yl)methyl)phosphonic acid or ((S)-fluoro(2-(((3S,6S,7aS,8aR,9aR)-3-(3-(morpholine-4-carbonyl)azetidine-1-carbonyl)-5-oxodecahydro-1H-cyclopropa[d]pyrrolo[1,2-a]azocin-6-yl)carbamoyl)benzo[b]thiophen-5-yl)methyl)phosphonic acid [Compound 33]	3000 to 30000	< 100
((S)-fluoro(2-(((3S,6S,7aS,8aR,9aR)-3-(3-(morpholine-4-carbonyl)azetidine-1-carbonyl)-5-oxodecahydro-1H-cyclopropa[d]pyrrolo[1,2-a]azocin-6-yl)carbamoyl)benzo[b]thiophen-5-yl)methyl)phosphonic acid Or ((R)-fluoro(2-(((3S,6S,7aS,8aR,9aR)-3-(3-(morpholine-4-carbonyl)azetidine-1-carbonyl)-5-oxodecahydro-1H-cyclopropa[d]pyrrolo[1,2-a]azocin-6-yl)carbamoyl)benzo[b]thiophen-5-yl)methyl)phosphonic acid [Compound 34]	> 30000	100 to 1000
(difluoro(2-(((3S,6S,7aR,8aS,9aR)-5-ox0-3-(3-(pyridin-2-yl)azetidine-1-carbonyl)decahydro-1H-cyclopropa[d]pyrrolo[1,2-a]azocin-6-yl)carbamoyl)benzo[b]thiophen-5-yl)methyl)phosphonic acid [Compound 106]	300 to 3000	< 100
(difluoro(2-(((3S,6S,8aR,9aS,9bR)-3-(3-methoxy-3-(1-methyl-1H-imidazol-2-yl)azetidine-1-carbonyl)-8a-methyl-5-oxodecahydro-1H-cyclopropa[c]pyrrolo[1,2-a]azocin-6-yl)carbamoyl)benzo[b]thiophen-5-yl)methyl)phosphonic acid [Example 241]	3000 to 30000	100 to 1000
